Entries after “also recorded” stand apart in the source; their conditions may differ.
How the values were obtained:
Format in all cases: cell-based
[1] = tested on: THP1 human macrophage cells; test: Stimulation of THP-1 cells, IL-6 at 6 or 36 hours post stimulation; conditions: THP1-derived macrophages, IFNγ + LPS, 0.1 to 500 μM, FIG. 9
Experimental: Human immortalized monocytic THP-1 cells were maintained in phenol red free RPMI 1640 medium containing 10% (v/v) fetal bovine serum (FBS), 2 mM L-glutamine, penicillin (100 units/mL), streptomycin (100 μg/mL), amphotericin B (2.5 μg/mL), and 50 μM beta-mercaptoethanol (BME) at 37° C. with 5% (v/v) CO2. THP-1 cells were seeded in 1 mL of THP-1 medium (cell culture medium containing 10% (v/v) FBS, 2 mM L-glutamine, penicillin (100 units/mL), streptomycin (100 μg/mL), amphotericin B ([…]), and 50 μM BME)/well at a density of 1×10^6 cells/mL in six-well plates. Cells were differentiated by adding 10, 50, or 100 nM phorbol 12-myristate 13-acetate (PMA) to each well before incubating cells for 5.5 h at 37° C. with 5% (v/v) CO2. Without removing the media, different concentrations (either 0, 0.1, 1.0, 10, 100, 200, or 500 μM) of the compound were added to each well. Cells were stimulated, within 30 min by adding 20 ng/mL interferon gamma (IFNγ) and 100 ng/mL lipopolysaccharide (LPS) to each well. Following stimulation, the THP-1 cells were incubated for 6 or 36 hours at 37° C. with 5% (v/v) CO2. Supernatant was collected and stored at −80° C. until use.
IL-6 released from supernatants collected at 6 or 36 hours post stimulation with IFNγ and LPS were measured using the AlphaLISA Human IL-6 detection kit.

[2] = tested on: BEAS-2B human lung epithelial cells; test: Stimulation of BEAS-2B human lung epithelial cells, cytokine expression; conditions: 20 ng/mL IL-1β, 48 h; for percent inhibition relative to Stimulated of Eotaxin expression: FIG. 12, FIG. 13
Experimental: BEAS-2B cells were maintained in Bronchial Epithelial Cell Growth Basal Medium (BEBM) containing all the recommended supplements for the Bronchial Epithelial Cell Growth Medium (BEGM; Lonza #CC-4175) and allowed to attain approximately 70% confluency with media changed every 2-3 days at 37° C. with 5% (v/v) CO2. Tissue culture flasks/vessels were pre-coated with a mixture of 0.01 mg/mL fibronectin (Sigma), 0.03 mg/ml bovine collagen type I (Sigma) and 0.01 mg/mL bovine serum albumin dissolved in the BEBM. BEAS-2B cells were seeded with 0.5 ml of 1×10^6 cells/mL in BEGM per well on 24-well plates and incubated overnight at 37° C. with 5% (v/v) CO2. The cells are pre-treated with different concentrations of compounds (0, 1.0, 10, 100, 1000 μM) for 1 hour prior to stimulation. To stimulate the cells, 10 ng/mL of Interleukin-1 beta (IL-1β), 10 ng/mL of Lipopolysaccharides (LPS), or 20 ng/mL of IL-1$ is added to the wells without removing the media and incubated for 48 hours at 37° C. with 5% (v/v) CO2. Supernatants were collected and stored at −80° C. until quantitative detection assays are performed. Human Eotaxin, Monocyte Chemoattractant Protein-1 (MCP-1), Interleukin-6 (IL-6), Interleukin-25 (IL-25), Interleukin-33 (IL-33), Thymic stromal lymphopoietin (TSLP), and Granulocyte-Macrophage Colony-Stimulating Factor (GM-CSF) released from supernatants collected post stimulation were measured using Human Magnetic Luminex® Assay Kit. Human CCL5/RANTES was measured using an Enzyme-Linked Immunosorbent Assay (ELISA)-based analysis.

[3] = tested on: EPC2 human esophageal keratinocytes; test: Stimulation of EPC2-hTERT human esophageal keratinocytes with Poly(I:C); conditions: 24 hours; for percent inhibition relative to Stimulated of MCP-1 expression: FIG. 19C; for percent inhibition relative to Stimulated of IL-6 expression: FIG. 19B
Experimental: EPC2-hTERT (EPC2) cells were maintained in supplemented keratinocyte serum-free medium (KSFM) with 0.09 mM calcium chloride containing epidermal growth factor (5 ng/mL), bovine pituitary extract ([…]), penicillin (100 units/mL), and streptomycin ([…]) (ThermoFisher #17005042) at 37° C. with 5% (v/v) CO2. EPC2 cells were seeded in 12-well plates at 0.55×10^6 cells per well in supplemented KSFM at 37° C. with 5% (v/v) CO2 and after 6 hours the old media is removed and changed with fresh media. After overnight incubation, the old media is changed to supplemented KSFM containing 1.8 mM calcium chloride and incubated for 72 hours at 37° C. with 5% (v/v) CO2. After the old media is removed and fresh supplemented KSFM containing 1.8 mM calcium chloride is added, the cells are pre-treated with different concentrations of compounds (0, 1, 10, 100, 500, 1000 μM) for 1 hour prior to stimulation. To stimulate the cells, Poly (I:C) (Tocris #4287) is added to the wells at […] concentration without removing the media and incubated for 24 hours at 37° C. with 5% (v/v) CO2. Supernatants are collected in Eppendorf tubes, centrifuged in a microfuge at maximum speed for 10 minutes at 4° C., and the centrifuged supernatants stored at −80° C. until quantitative detection assays are performed. Human Interleukin-6 (IL-6), Monocyte Chemoattractant Protein-1 (MCP-1), and Thymic stromal lymphopoietin (TSLP) released from supernatants collected post stimulation were measured using the AlphaLISA detection kit for human IL-6, MCP-1, and TSLP, respectively.

SMILES | percent inhibition relative to Control of IL-6 levels secreted [1] | percent inhibition relative to Stimulated of IL-33 expression ([2]; FIG. 12) | percent inhibition relative to Stimulated of TSLP expression ([2]; FIG. 12) | percent inhibition relative to Stimulated of Eotaxin expression [2] | percent inhibition relative to Stimulated of IL-25 expression ([2]; compound concentration series, FIG. 12) | percent inhibition relative to Stimulated of IL-25 expression, level at which it topped out ([2]; even at 100 μM, FIG. 12) [%] | percent inhibition relative to Stimulated of MCP-1 expression ([3]; increasing concentrations) | percent inhibition relative to Stimulated of IL-6 expression ([3]; increasing concentrations) | percent inhibition relative to Stimulated of IL-6 expression ([3]; at 100 μM) | percent inhibition relative to Stimulated of TSLP expression ([3]; increasing concentrations, FIG. 19A) | percent inhibition relative to Stimulated of MCP-1 expression ([3]; increasing concentrations, listed as compound 13)
C[C@H](CC/C=C/C(=O)OCc1ccncc1)O[C@@H]1O[C@@H](C)[C@H](O)C[C@H]1O [Compound 6, pyridin-4-ylmethyl (2E,6R)-6-{[(2R,3R,5R,6S)-3,5-dihydroxy-6-methyloxan-2-yl]oxy}hept-2-enoate] | inhibited IL-6 expression in statistically significant, dose-dependent manner | statistically significant inhibition | statistically significant inhibition | statistically significant inhibition | robust inhibition of IL-25 expression at 1 mM concentration | 60 |  |  |  |  | 
C[C@@H]1O[C@@H](OCCC/C=C/C(=O)OC(C)(C)C)[C@H](O)C[C@H]1O [Compound 11, tert-butyl (E)-6-(((2R,3R,5R)-3,5-dihydroxy-6-methyltetrahydro-2H-pyran-2-yl)oxy)hex-2-enoate] | inhibited IL-6 expression in statistically significant, dose-dependent manner |  |  |  |  |  | inhibited MCP-1 expression in statistically significant, dose-dependent manner |  |  |  | 
C[C@H](CCC1CC1C(=O)OC(C)(C)C)O[C@@H]1O[C@@H](C)[C@H](O)C[C@H]1O (stereo partly drawn) [Compound 2, tert-butyl 2-[(3R)-3-{[(2R,3R,5R,6S)-3,5-dihydroxy-6-methyloxan-2-yl]oxy}butyl]cyclopropane-1-carboxylate] | inhibited IL-6 expression in statistically significant, dose-dependent manner |  |  | statistically significant, complete inhibition |  |  | inhibited MCP-1 expression in statistically significant manner; also recorded: only showed inhibition at the highest 100 μM concentration | inhibited IL6 expression in statistically significant manner | robust inhibition |  | 
C[C@H](CC/C=C/C(=O)N1CCCC1)O[C@@H]1O[C@@H](C)[C@H](O)C[C@H]1O [Compound 13, (R,E)-6-(((2R,3R,5R,6S)-3,5-dihydroxy-6-methyltetrahydro-2H-pyran-2-yl)oxy)-1-(pyrrolidin-1-yl)hept-2-en-1-one] | inhibited IL-6 expression in statistically significant, dose-dependent manner |  |  |  |  |  | inhibited MCP-1 expression in statistically significant manner |  |  | inhibited TSLP expression in statistically significant manner; also recorded: robust blocking | robust blocking of MCP-1 expression starting at 1 mM

— patent US11845770B2, “Ascaroside derivatives and methods of use” (California Institute of Technology, priority 2019, dated 2023)
